Results: ChEMBL document CHEMBL1944614, “A scaffold hopping approach to identify novel monoamine oxidase B inhibitors” (Bioorg Med Chem Lett, 2012)

Key:
[1] = target: T1, Amine oxidase [flavin-containing] B (Homo sapiens, UniProt P27338); assay: Inhibition of human recombinant MAOB using kynuramine as substrate by fluorimetry
T1 sequence (P27338 whole entry): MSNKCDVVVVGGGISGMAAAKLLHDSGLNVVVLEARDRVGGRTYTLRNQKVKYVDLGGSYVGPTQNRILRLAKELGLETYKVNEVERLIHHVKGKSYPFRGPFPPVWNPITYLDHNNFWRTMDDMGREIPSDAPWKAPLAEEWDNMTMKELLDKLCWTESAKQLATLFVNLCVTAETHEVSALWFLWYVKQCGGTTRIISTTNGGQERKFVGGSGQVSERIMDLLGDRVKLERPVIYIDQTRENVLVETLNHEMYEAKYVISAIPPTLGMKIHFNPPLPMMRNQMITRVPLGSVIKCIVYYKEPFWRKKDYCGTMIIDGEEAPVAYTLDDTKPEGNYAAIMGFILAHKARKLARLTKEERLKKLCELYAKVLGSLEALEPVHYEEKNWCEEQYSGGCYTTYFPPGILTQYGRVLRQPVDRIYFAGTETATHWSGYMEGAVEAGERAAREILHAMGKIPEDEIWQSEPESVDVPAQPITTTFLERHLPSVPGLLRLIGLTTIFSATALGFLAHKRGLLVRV

[2] = target: T2, Amine oxidase [flavin-containing] A (Homo sapiens, UniProt P21397); assay: Inhibition of human recombinant MAOA using kynuramine as substrate by fluorimetry
T2 sequence (P21397 whole entry): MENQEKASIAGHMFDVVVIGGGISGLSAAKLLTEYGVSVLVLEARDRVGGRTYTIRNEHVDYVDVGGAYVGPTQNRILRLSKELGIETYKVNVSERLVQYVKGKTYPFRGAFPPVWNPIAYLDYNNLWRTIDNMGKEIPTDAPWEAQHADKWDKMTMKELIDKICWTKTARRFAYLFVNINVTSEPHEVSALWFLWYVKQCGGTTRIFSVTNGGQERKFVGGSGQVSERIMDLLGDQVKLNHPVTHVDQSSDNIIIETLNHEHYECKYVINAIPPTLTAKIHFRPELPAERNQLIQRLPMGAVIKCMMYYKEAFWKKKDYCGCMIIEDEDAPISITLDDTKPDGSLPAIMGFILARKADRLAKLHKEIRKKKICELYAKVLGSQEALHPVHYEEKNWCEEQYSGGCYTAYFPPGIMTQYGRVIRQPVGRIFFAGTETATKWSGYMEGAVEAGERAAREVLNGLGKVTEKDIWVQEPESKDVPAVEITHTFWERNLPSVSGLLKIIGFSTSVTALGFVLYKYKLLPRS

[3] = target: T1, Amine oxidase [flavin-containing] B; assay: Competitive inhibition of human recombinant MAOB by Lineweaver-Burk plot analysis

Row | IC50 [1] | IC50 [2] | inhibition (INH) [3] | Compound
1 | 3.35 µM | 40.2 µM |  | Cc1ccc2c(c1)O/C(=C\c1ccccc1)C2=O
2 | 13.3 µM | > 100 µM |  | Cc1[nH]n(-c2ccccc2)c(=O)c1/C=N/NC(=O)c1cccnc1
3 | 0.921 µM | 5.36 µM |  | CCOC1CC(c2ccccc2)=NN1c1ccc([N+](=O)[O-])cc1 (stereo not drawn)
4 | 2.62 µM | > 100 µM |  | COc1ccc(NC(=O)N2CCc3ccccc32)cc1

The next lines start with the compound.

Row | Compound | IC50 [1] | IC50 [2] | inhibition (INH) [3]
5 | O=C1/C(=C/c2ccccc2O)Oc2cc(O)ccc21 | 11.5 µM | 17.7 µM | 
6 | O=C1NC(=O)/C(=C\c2ccc(Br)cc2)S1 | 0.228 µM | 43.5 µM | Active
7 | CN(C)c1ccc(/C=C2\Oc3cc(O)ccc3C2=O)cc1 |  | 0.979 µM | 
8 | CN(C)c1ccc(/C=C2\Oc3ccccc3C2=O)cc1 | 0.099 µM | 0.268 µM | 
9 | O=C1/C(=C/c2ccc(Cl)cc2)Oc2ccccc21 | 0.305 µM | 0.709 µM | 
